Laboratory results as given in patent US20250059204A1, “FUSED BENZOISOXAZOLYL COMPOUNDS AS KAT6A INHIBITORS” (Aurigene Oncology Limited, priority 2021, published 2025).

Biological target: human-KAT6A (MYST domain 507-778 aa) (Homo sapiens (Human), UniProt Q92794)
Assay: KAT6A biochemical assay (TR-FRET)
Conditions: H4 peptide 200 nM, acetyl-CoA 600 nM
Source text: TR-FRET based method was used for assaying compounds of the present invention for KAT6A enzyme inhibitory activity. TR-FRET is homogeneous proximity assay where Europium-labelled anti-acetyl lysine antibody binds to the acetylated substrate labelled with biotin which in turn binds to streptavidin labelled APC fluorescence acceptor. Europium can transfer energy to APC in the complex and the interaction of two dye-labelled binding partners is detected by the energy transfer between a donor and an acceptor dye, and the subsequent light emission by the acceptor dye. KAT6A transfer an acetyl group from acetyl CoA to lysine amino acids of histones/target proteins. Typically, 5 μL of human-KAT6A (MYST domain 507-778 aa) in assay buffer (100 mM Tris HCl (pH 7.8), 15 mM NaCl, 1 mM EDTA, 0.01% Tween-20, 0.02% BSA, 1 mM DTT) is added to 384-well plate containing 5 μL of selected test compound in final 1% DMSO, serially diluted in 1:3 in an 8-10-point titration. The selected compound of the present invention and enzyme are incubated for 30 min at room temperature. Next, 5 μL of substrate mix containing histone H4 peptide and acetyl-CoA in assay buffer is added to the plate. The final concentrations of H4 peptide and acetyl-CoA are 200 nM and 600 nM respectively. Following 30 min reaction at room temperature, 5 μL of detection mix containing Europium labelled anti-acetyl antibody and streptavidin-APC is added to the reaction wells. The plate is further incubated for 45 min at room temperature and is read in TR-FRET mode (Ex:340 nm; Em: 615 nm and 665 nm) on a plate reader. The percent inhibition was calculated from the ratio of the fluorescence (FL) intensities [(F665/F615)×10,000) using the formula […]. IC50 values of the compounds were determined by fitting the dose-response data to sigmoidal curve fitting equation using Graph pad prism software V8.

Chain of human-KAT6A (MYST domain 507-778 aa) (Q92794 507-778): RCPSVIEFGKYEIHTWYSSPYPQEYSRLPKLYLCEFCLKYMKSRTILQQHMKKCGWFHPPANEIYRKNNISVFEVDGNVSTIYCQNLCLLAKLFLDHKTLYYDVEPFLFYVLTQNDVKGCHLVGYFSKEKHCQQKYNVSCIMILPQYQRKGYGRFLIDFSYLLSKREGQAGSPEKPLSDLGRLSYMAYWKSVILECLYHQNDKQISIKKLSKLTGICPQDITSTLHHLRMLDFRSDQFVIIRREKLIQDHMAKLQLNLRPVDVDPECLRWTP

Compound | IC50
COc1cc2c(cc1S(=O)(=O)Nc1noc3cc(Cn4cccn4)c4c(c13)OCC4)CCCC2 [Compound 43] | 12 nM
COc1ccc(-n2cccn2)cc1S(=O)(=O)Nc1noc2cc(Cn3cccn3)c3c(c12)OCC3 [Compound 40] | 27 nM
COc1cccc(OC)c1S(=O)(=O)Nc1noc2cc(Cn3ccnn3)c3c(c12)OCC3 [Compound 41] | 25 nM
COc1cccc(OC)c1S(=O)(=O)Nc1noc2cc(-c3ccsc3)c3c(c12)OCC3 [Compound 3] | 43 nM
COc1cccc(OC)c1S(=O)(=O)Nc1noc2cc(-c3cccnc3)c3c(c12)OCC3 [Compound 54] | 158 nM
COc1cccc(OC)c1S(=O)(=O)Nc1noc2cc(Cn3cccn3)c3c(c12)OC(C)C3 (stereo not drawn) [Compound 21, N-(4-((1H-pyrazol-1-yl)methyl)-2-methyl-2,3-dihydrobenzofuro[7,6-d]isoxazol-8-yl)-2,6-dimethoxybenzenesulfonamide] | 19 nM
COc1cccc(OC)c1S(=O)(=O)Nc1noc2cc(-c3cc(C)cs3)c3c(c12)OCC3 [Compound 13] | 71 nM
COc1cccc(OC)c1S(=O)(=O)Nc1noc2cc(C(C)n3cccn3)c3c(c12)OCC3 (stereo not drawn) [Compound 20] | 51 nM
O=S(=O)(Nc1noc2cc(Cn3cccn3)c3c(c12)OCC3)c1ccccc1OC(F)(F)F [Compound 50] | 70 nM
COc1cc(-n2cccn2)ccc1S(=O)(=O)Nc1noc2cc(Cn3cccn3)c3c(c12)OCC3 [Compound 39] | 22 nM
COc1cccc(OC)c1S(=O)(=O)Nc1noc2cc(Cn3ccc(C(F)(F)F)n3)c3c(c12)OCC3 [Compound 37] | 494 nM
O=S(=O)(Nc1noc2cc(Cn3cccn3)c3c(c12)OCC3)c1c(Cl)cccc1Cl [Compound 45] | 40 nM
COc1csc(-c2cc3onc(NS(=O)(=O)c4c(OC)cccc4OC)c3c3c2CCO3)c1 [Compound 7] | 150 nM
COc1cccc(OC)c1S(=O)(=O)Nc1noc2cc(-c3ccccc3)c3c(c12)OCCC3C (stereo not drawn) [Compound 17] | 74 nM
CCc1ccc(OC)c(S(=O)(=O)Nc2noc3cc(Cn4cccn4)c4c(c23)OCC4)c1 [Compound 46] | 20 nM
COc1cccc(OC)c1S(=O)(=O)Nc1noc2cc(Cn3cccn3)c3c(c12)OC(C)C3 (single isomer, unassigned) [Compound 22, N-(4-((1H-pyrazol-1-yl)methyl)-2-methyl-2,3-dihydrobenzofuro[7,6-d]isoxazol-8-yl)-2,6-dimethoxybenzenesulfonamide] | 21 nM
COCC1Cc2c(Cn3cccn3)cc3onc(NS(=O)(=O)c4c(OC)cccc4OC)c3c2O1 (single isomer, unassigned) [Compound 62, N-(4-((1H-pyrazol-1-yl)methyl)-2-(methoxymethyl)-2,3-dihydrobenzofuro[7,6-d]isoxazol-8-yl)-2,6-dimethoxybenzenesulfonamide] | 164 nM
COc1cc(C(C)(C)C)ccc1S(=O)(=O)Nc1noc2cc(Cn3cccn3)c3c(c12)OCC3 [Compound 47] | 26 nM
COc1cccc(OC)c1S(=O)(=O)Nc1noc2cc(-c3ccc(C)s3)c3c(c12)OCC3 [Compound 12] | 291 nM
COc1cccc(OC)c1S(=O)(=O)Nc1noc2cc(-c3ccc(C)o3)c3c(c12)OCC3 [Compound 9] | 36 nM
O=S(=O)(Nc1noc2cc(Cn3cccn3)c3c(c12)OCC3)c1ccccc1-c1ccccc1 [Compound 53] | 29 nM
O=S(=O)(Nc1noc2cc(Cn3cccn3)c3c(c12)OCC3)c1ccccc1F [Compound 51] | 35 nM
COc1cccc(OC)c1S(=O)(=O)Nc1noc2cc(Cn3cc(F)cn3)c3c(c12)OCC3 [Compound 34] | 26 nM
COc1cccc(OC)c1S(=O)(=O)Nc1noc2cc(Cn3cc(C#N)cn3)c3c(c12)OCC3 [Compound 33] | 127 nM

Further lines, results first:

IC50 | Compound
35 nM | COc1cccc(OC)c1S(=O)(=O)Nc1noc2cc(-c3ccccc3)c3cc(C)oc3c12 [Compound 59]
23 nM | COc1ccc(C(=O)O)cc1S(=O)(=O)Nc1noc2cc(Cn3cccn3)c3c(c12)OCC3 [Compound 63, 3—(N-(4-((1H-pyrazol-1-yl)methyl)-2,3-dihydrobenzofuro[7,6-d]isoxazol-8-yl)sulfamoyl)-4-methoxybenzoic Acid]
45 nM | COc1cccc(OC)c1S(=O)(=O)Nc1noc2cc(-c3ccccc3)c3c(c12)OCCC3 [Compound 15]
88 nM | COc1cccc(OC)c1S(=O)(=O)Nc1noc2cc(-c3scnc3C)c3c(c12)OCC3 [Compound 11]
43 nM | COc1cccc(OC)c1S(=O)(=O)Nc1noc2cc(-c3ccco3)c3c(c12)OCC3 [Compound 8]
57 nM | COc1cccc(OC)c1S(=O)(=O)Nc1noc2cc(-c3ccccc3)c3c(c12)OCC3 [Compound 1, 2,6-dimethoxy-N-(4-phenyl-2,3-dihydrobenzofuro[7,6-d]isoxazol-8-yl)benzenesulfonamide]
30 nM | O=S(=O)(Nc1noc2cc(Cn3cccn3)c3c(c12)OCC3)c1c(F)cccc1F [Compound 48]
23 nM | COc1cccc(OC)c1S(=O)(=O)Nc1noc2cc(Cn3cccn3)c3c(c12)OC(C)C3 (single isomer, unassigned) [Compound 23, N-(4-((1H-pyrazol-1-yl)methyl)-2-methyl-2,3-dihydrobenzofuro[7,6-d]isoxazol-8-yl)-2,6-dimethoxybenzenesulfonamide]
32.7 nM | COc1cc2c(cc1S(=O)(=O)Nc1noc3cc(Cn4cccn4)c4c(c13)OCC4)CCC2 [Compound 44]
26.6 nM | COC(=O)c1ccc(OC)c(S(=O)(=O)Nc2noc3cc(Cn4cccn4)c4c(c23)OCC4)c1 [Compound 42]
280 nM | COCC1Cc2c(Cn3cccn3)cc3onc(NS(=O)(=O)c4c(OC)cccc4OC)c3c2O1 (single isomer, unassigned) [Compound 61, N-(4-((1H-pyrazol-1-yl)methyl)-2-(methoxymethyl)-2,3-dihydrobenzofuro[7,6-d]isoxazol-8-yl)-2,6-dimethoxybenzenesulfonamide]
27 nM | COc1cccc(OC)c1S(=O)(=O)Nc1noc2cc(Cn3cc(Cl)cn3)c3c(c12)OCC3 [Compound 35]
32 nM | CCOc1ccccc1S(=O)(=O)Nc1noc2cc(Cn3cccn3)c3c(c12)OCC3 [Compound 52]
37 nM | COc1cccc(OC)c1S(=O)(=O)Nc1noc2cc(-c3ccccc3)c3c(c12)OC(C)C3 (stereo not drawn) [Compound 18]
135 nM | COc1cccc(OC)c1S(=O)(=O)Nc1noc2cc(-c3ccccc3)c3c(c12)OC(C)(C)C3 [Compound 57]
29 nM | COc1cccc(OC)c1S(=O)(=O)Nc1noc2cc(-c3ccoc3)c3c(c12)OCC3 [Compound 4]
219 nM | COc1cccc(OC)c1S(=O)(=O)Nc1noc2cc(Cn3cc(C(F)(F)F)cn3)c3c(c12)OCC3 [Compound 36]
31 nM | COCc1cc2onc(NS(=O)(=O)c3c(OC)cccc3OC)c2c2c1CCO2 [Compound 19]
32 nM | O=S(=O)(Nc1noc2cc(Cn3cccn3)c3c(c12)OCC3)c1ccccc1OCc1ccccn1 [Compound 38]
20 nM | COc1cccc(OC)c1S(=O)(=O)Nc1noc2cc(Cn3cccn3)c3c(c12)OCC3 [Compound 2, N-(4-((1H-pyrazol-1-yl)methyl)-2,3-dihydrobenzofuro[7,6-d]isoxazol-8-yl)-2,6-dimethoxybenzenesulfonamide]
10 nM | COc1cc(C2CC2)ccc1S(=O)(=O)Nc1noc2cc(Cn3cccn3)c3c(c12)OCC3 [Compound 65, N-(4-((1H-pyrazol-1-yl)methyl)-2,3-dihydrobenzofuro[7,6-d]isoxazol-8-yl)-4-cyclopropyl-2-methoxybenzenesulfonamide]
76 nM | COc1ccc(C(C)(C)C)cc1S(=O)(=O)Nc1noc2cc(Cn3cccn3)c3c(c12)OCC3 [Compound 49]
21 nM | COc1cccc(OC)c1S(=O)(=O)Nc1noc2cc(Cn3cccn3)c3cc(C)oc3c12 [Compound 58]
18 nM | COc1cc(C(F)(F)F)ccc1S(=O)(=O)Nc1noc2cc(Cn3cccn3)c3c(c12)OCC3 [Compound 31]
34 nM | COc1ccccc1S(=O)(=O)Nc1noc2cc(Cn3cccn3)c3c(c12)OCC3 [Compound 55]
46 nM | COc1cccc(OC)c1S(=O)(=O)Nc1noc2cc(-c3cccs3)c3c(c12)OCC3 [Compound 6]
99 nM | COCC1Cc2c(Cn3cccn3)cc3onc(NS(=O)(=O)c4c(OC)cccc4OC)c3c2O1 (stereo not drawn) [Compound 60, N-(4-((1H-pyrazol-1-yl)methyl)-2-(methoxymethyl)-2,3-dihydrobenzofuro[7,6-d]isoxazol-8-yl)-2,6-dimethoxybenzenesulfonamide]
